The source of these data is US20220064238A1, “Methods And Compositions For Modifying Transcription Factor Activity by Targeting The Human Mediator Complex Using Cell Penetrating Memetic Peptides And Methods of Treating Cancer Using The Same” (The Regents of the University of Colorado, a body corporate, priority 2020, published 2022).

Bridge positions count the residues as written; N and C are the ends. Square brackets hold non-standard residues; d marks the D form. Peptide text beside a SMILES is read from it. PEG6 = NCCOCCOCCOCCOCCOCCOCCC(=O)O; R8 = C=CCCCCCC[C@@](C)(N)C(=O)O; S5 = C=CCCC[C@](C)(N)C(=O)O

One assay has as its target T1, VP16-Mediator binding (Homo sapiens, UniProt Q71SY5+Q9NVC6).
T1 construct: endogenous in cells
The experiment in a line: In vitro binding assay, VP16AD-Mediator. Particulars: bivalent peptide 5 μM.

Another assay deals with Gal4-VP16 / Mediator. The experiment in a line: In vitro transcription on chromatin templates activated by Gal4-VP16. The assay is classed as biochemical, human. The settings on record: read-out: IC50, transcription in the presence of Gal4-VP16. The text has this:
Finally, we assessed whether the bivalent peptide would selectively block p53-dependent transcription compared with VP16, a viral activation domain. Whereas p53 and VP16 both interact with Mediator, they do so through different subunits (MED17 and MED25, respectively).
In vitro transcription: Chromatinized templates and in vitro transcription assays were generated and completed as described (Knuesel et al., 2009). Briefly, each activator (GAL4-p53AD or GAL4-VP16AD) was titrated to yield maximum transcription. While the activator bound the template, the general transcription factors (GTFs) were mixed in 0.1 M HEMG (10 mM HEPES pH 7.6, 100 mM KCl, 0.1 mM EDTA, 10% glycerol, 5.5 mM MgCl2) to give approximate final concentrations of 40 nM TFIIA, 10 nM IIB, 0.8 nM TFIID, 10 nM TFIIE, 10 nM TFIIF, 0.5 nM TFIIH and 2 nM pol II. A non-limiting amount of Mediator was then diluted in a separate salts mix (10 mM HEPES pH 7.6, 100 mM KCl, 2.5% PVA, 2.5% PEG, 7.5 mM MgCl2), along with 400 U of RNAseOUT, about 300 ng PC4 and about 300 ng HMGB1. On ice, the desired concentration of peptide was then added to the Mediator mix, followed by the GTF mix at a 5:11 ratio. The GTFs, Mediator and peptide were then incubated at least 5 minutes at 30° C. […]

Broadly, the IC50 is the point on the concentration scale where inhibition reaches its midpoint. Take `CC[C@H](C)[C@H](NC(=O)[C@H](CC(=O)O)NC(=O)[C@H](CC(=O)O)NC(=O)[C@@H]1CCCN1C(=O)[C@H](CO)NC(=O)[C@H](CC(C)C)NC(=O)CCOCCOCCOCCOCCOCCOCCNC(=O)[C@H](CCCNC(=N)N)NC(=O)[C@H](CCCNC(=N)N)NC(=O)[C@]1(C)CCCC=CCCCCCC[C@@](C)(NC(=O)[C@H](Cc2ccccc2)NC(=O)[C@H](CCCNC(=N)N)NC(=O)[C@H](CCC(=O)O)NC(=O)[C@H](CCC(N)=O)NC(=O)[C@H](CO)NC(=O)[C@H](CCCNC(=N)N)NC(C)=O)C(=O)N[C@@H](CC(=O)O)C(=O)N[C@@H](CC(C)C)C(=O)N[C@@H](Cc2c[nH]c3ccccc23)C(=O)N[C@@H](CCCCN)C(=O)N[C@@H](CCCNC(=N)N)C(=O)N[C@@H](CC(C)C)C(=O)N1)C(=O)N[C@@H](CCC(=O)O)C(=O)N[C@@H](CCC(N)=O)C(=O)N[C@@H](Cc1c[nH]c2ccccc12)C(=O)N[C@@H](Cc1ccccc1)C(=O)N[C@H](C(=O)N[C@@H](CCC(=O)O)C(=O)N[C@@H](CC(=O)O)C(N)=O)[C@@H](C)O` [bivalent peptide] (Ac-RSQERF[R8]DLWKRL[S5]RR[PEG6]LSPDDIEQWFTED-NH2; staple 7-14; N-terminus assumed): the “effect on VP16AD binding to Mediator” value at VP16-Mediator binding is recorded as “did not reduce VP16AD binding to Mediator”. Also, on VP16-Mediator binding (n=2), the “increase in Mediator-bound VP16 in +peptide experiments (GST-VP16 normalized to MED15)” value is 1.67 fold. Besides, the IC50 in the assay with Gal4-VP16 / Mediator stood at 424 nM.
